According to US5604231A, “Pharmaceutical compositions for prevention and treatment of ulcerative colitis” (priority 1995, dated 1997):

How the values were obtained:
[1] = in words; literature; cited from earlier work
[2] = target: T1, muscle-like nicotinic receptors (TE671/RD) (Homo sapiens, UniProt P02708+P07510+P11230+Q07001); test: cell-based; conditions: for Emax: TE671/RD, read-out: Muscle Effect (% nicotine)
T1 construct: these cells express muscle-like nicotinic receptors; endogenous in cells; host or cells: TE671/RD (human embryonal rhabdomyosarcoma)

nicotinic receptors = test: Determination of binding of compounds to relevant receptor sites (inhibition of L-[3H]nicotine binding, brain membrane preparations); parameters: species or system rat (Sprague-Dawley)
Protocol: Rats (Sprague-Dawley) were maintained on a 12 hour light/dark cycle and were allowed free access to water and food supplied by Wayne Lab Blox, Madison, Wis. Animals used in the present studies weighed 200 to 250 g. Brain membrane preparations were obtained from brain tissue of either males or females.
Rats were killed by decapitation following anesthesia with 70% CO2. Brains were removed and placed on an ice-cold platform. […] The resulting homogenate was centrifuged at 18,000×g for 20 min. and the resulting pellet was resuspended in 20 volumes of water. After 60 min. incubation at 4° C., a new pellet was collected by centrifugation at 18,000×g for 20 min. After resuspension in 10 volumes of buffer, a new final pellet was again collected by centrifugation at 18,000×g for 20 min. Prior to each centrifugation step, the suspension was incubated at 37 ° C. for 5 min. to promote hydrolysis of endogenous acetylcholine. The final pellet was overlayered with buffer and stored at -70 ° C. On the day of the assay, that pellet was thawed, resuspended in buffer and centrifuged at 18,000×g for 20 min. The pellet obtained was resuspended in buffer to a final concentration of approximately 5 mg protein/mi. […]

[3] = in words; some patients; cited from earlier work
[4] = test system: IL-2; memory; neurotransmitter release in the CNS; conditions: in words; literature; cited from earlier work
[5] = in words; literature; cited from earlier work; remark: listed apart in the source

T1 sequence (P02708 21-457): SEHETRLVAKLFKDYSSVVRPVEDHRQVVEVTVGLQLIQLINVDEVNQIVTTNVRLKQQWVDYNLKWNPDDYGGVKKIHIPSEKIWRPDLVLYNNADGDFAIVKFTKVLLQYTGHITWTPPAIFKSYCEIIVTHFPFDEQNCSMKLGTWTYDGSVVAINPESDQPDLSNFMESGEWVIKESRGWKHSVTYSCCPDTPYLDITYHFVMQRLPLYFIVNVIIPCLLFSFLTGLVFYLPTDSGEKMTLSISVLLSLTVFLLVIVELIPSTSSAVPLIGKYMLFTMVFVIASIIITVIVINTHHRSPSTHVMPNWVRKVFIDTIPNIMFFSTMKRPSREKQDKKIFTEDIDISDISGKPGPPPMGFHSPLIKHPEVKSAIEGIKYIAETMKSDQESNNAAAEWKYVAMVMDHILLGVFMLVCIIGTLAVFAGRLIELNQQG
T1 sequence (Q07001 22-517): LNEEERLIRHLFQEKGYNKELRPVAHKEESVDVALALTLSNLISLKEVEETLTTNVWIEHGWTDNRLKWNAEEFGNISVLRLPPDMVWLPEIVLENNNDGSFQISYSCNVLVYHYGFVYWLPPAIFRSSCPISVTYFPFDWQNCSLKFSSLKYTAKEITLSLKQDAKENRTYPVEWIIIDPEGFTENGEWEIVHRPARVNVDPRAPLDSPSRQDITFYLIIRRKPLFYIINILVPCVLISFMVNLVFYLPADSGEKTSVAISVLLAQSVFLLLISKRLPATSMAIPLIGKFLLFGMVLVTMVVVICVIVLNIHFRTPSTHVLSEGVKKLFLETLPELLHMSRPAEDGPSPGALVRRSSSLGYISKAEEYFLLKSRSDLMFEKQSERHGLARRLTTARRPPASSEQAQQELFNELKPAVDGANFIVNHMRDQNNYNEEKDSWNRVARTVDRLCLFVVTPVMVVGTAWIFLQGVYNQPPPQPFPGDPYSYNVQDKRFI
T1 sequence (P07510 23-517): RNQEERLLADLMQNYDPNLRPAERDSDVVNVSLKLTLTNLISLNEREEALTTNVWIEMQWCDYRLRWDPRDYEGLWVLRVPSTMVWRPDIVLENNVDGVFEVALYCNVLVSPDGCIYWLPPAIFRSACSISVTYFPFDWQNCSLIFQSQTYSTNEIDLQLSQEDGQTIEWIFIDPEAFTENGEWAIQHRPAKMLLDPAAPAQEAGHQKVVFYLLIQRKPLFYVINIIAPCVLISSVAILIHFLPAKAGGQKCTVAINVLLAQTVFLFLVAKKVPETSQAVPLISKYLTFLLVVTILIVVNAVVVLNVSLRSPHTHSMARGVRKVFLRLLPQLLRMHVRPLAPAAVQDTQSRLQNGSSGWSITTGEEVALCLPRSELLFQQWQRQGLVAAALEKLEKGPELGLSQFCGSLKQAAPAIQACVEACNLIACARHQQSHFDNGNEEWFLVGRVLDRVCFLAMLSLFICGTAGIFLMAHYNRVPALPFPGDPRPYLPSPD
T1 sequence (P11230 24-501): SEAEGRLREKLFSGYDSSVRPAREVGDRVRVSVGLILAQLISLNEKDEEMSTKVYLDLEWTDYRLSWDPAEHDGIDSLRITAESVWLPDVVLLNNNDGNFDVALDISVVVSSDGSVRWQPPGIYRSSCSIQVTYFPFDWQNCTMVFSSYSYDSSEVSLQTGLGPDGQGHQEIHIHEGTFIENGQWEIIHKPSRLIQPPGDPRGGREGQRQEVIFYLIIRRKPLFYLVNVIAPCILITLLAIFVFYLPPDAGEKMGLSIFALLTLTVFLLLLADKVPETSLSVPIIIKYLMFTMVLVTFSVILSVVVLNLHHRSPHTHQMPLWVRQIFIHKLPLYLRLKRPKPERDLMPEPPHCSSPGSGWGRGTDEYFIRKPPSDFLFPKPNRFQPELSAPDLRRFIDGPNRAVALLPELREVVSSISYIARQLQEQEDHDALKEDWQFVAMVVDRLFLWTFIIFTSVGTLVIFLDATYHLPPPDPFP

CN1CCC[C@H]1c1cccnc1 [C-1, (S)-(-)-nicotine]
treatment of various CNS disorders [1]: positive effect towards the treatment of various CNS disorders

CNCC/C=C/c1cncnc1 [Sample No. 2, (E)-N-methyl-4-(5-pyrimidinyl)-3-butene-1-amine]
Emax [2]: 4%

COc1cncc(/C=C/CCN)c1 [Sample No. 3, (E)-4-[3-(5-methoxypyridin)yl]-3-butene-1-amine monofumarate]
Emax [2]: 0%

CNCCC#Cc1cccnc1 [Sample No. 4, N-Methyl-4-(3-pyridinyl)-3-butyne-1-amine]
Ki (nicotinic receptors): 58 nM
Emax [2]: 7%

CNCC/C=C/c1ccc(C)nc1 [Sample No. 6, (E)-N-methyl-4-[3-(6-methylpyridin)yl]-3-butene-1-amine]
Emax [2]: 2%

CNCCCCc1cccnc1 [Sample No. 7, N-methyl-(3-pyridinyl)-butane-1-amine]
Emax [2]: 0%

CNCC/C=C/c1cccnc1 [Sample No. 8, (E)-metanicotine]
Muscle Effect (% nicotine) ([2]; te671/rd cells): 15 % nicotine

Nc1ccc(O)c(C(=O)O)c1 [mesalamine]
effectiveness in treatment of acute UC [3]: effective to some degree in some patients

CN1CCCC1c1cccnc1 (centres unmarked) [nicotine]
effects upon memory [4]: positive effects upon memory
neurotransmitter release in the CNS [4]: induce neurotransmitter release in the CNS
production of IL-2 [4]: inhibit the production of IL-2
rectal blood flow [5]: Positive effects

O=C(O)c1cc(/N=N/c2ccc(S(=O)(=O)Nc3ccccn3)cc2)ccc1O [sulfasalazine]
effectiveness in treatment of acute UC [3]: effective to some degree in some patients
